Source: ChEMBL document CHEMBL4177608, “Design and synthesis of benzimidazole-based Rho kinase inhibitors for the treatment of glaucoma” (Bioorg Med Chem, 2017)
Converted amounts (≈) assume the structure as drawn.

Tests used:
[1] = Antioxidant activity assessed as DPPH free radical scavenging activity at 150 ug/ml after 30 mins by spectrophotometric analysis; format: functional
Rattus norvegicus [2] = organism: Rattus norvegicus; assay: Reduction in intraocular pressure in Wistar rat model of dexamethasone-induced elevated IOP assessed as change in intraocular pressure in contralateral eye at 1 % w/v after 6 hrs by tonometry (reference value: 0%); format: ADME, organism-based; design: scale not given: the % may be the effect or the level left; details: in vivo
[3] = 1-Octanol/water partition coefficient, log P of compound at 2 mg after 24 hrs by spectrophotometry based shake flask method; format: physicochemical
[4] = Antioxidant activity assessed as DPPH free radical scavenging activity at 200 ug/ml after 30 mins by spectrophotometric analysis; format: functional
Rattus norvegicus [5] = organism: Rattus norvegicus; assay: Reduction in intraocular pressure in Wistar rat model of dexamethasone-induced elevated IOP assessed as change in intraocular pressure at 1 % w/v after 2 hrs by tonometry (reference value: 0%); format: functional; design: scale not given: the % may be the effect or the level left
[6] = Antioxidant activity assessed as DPPH free radical scavenging activity after 30 mins by spectrophotometric analysis; format: functional
Rattus norvegicus [7] = organism: Rattus norvegicus; assay: Reduction in intraocular pressure in Wistar rat model of dexamethasone-induced elevated IOP assessed as reduction in intraocular pressure at peak effect time at 1 % w/v by tonometry; format: functional; design: scale not given: the % may be the effect or the level left
Rattus norvegicus [8] = organism: Rattus norvegicus; assay: Reduction in intraocular pressure in Wistar rat model of dexamethasone-induced elevated IOP assessed as change in intraocular pressure in contralateral eye at 1 % w/v after 5 hrs by tonometry (reference value: 0%); format: ADME, organism-based; design: scale not given: the % may be the effect or the level left; details: in vivo
[9] = Antioxidant activity assessed as DPPH free radical scavenging activity at 25 ug/ml after 30 mins by spectrophotometric analysis; format: functional
Rattus norvegicus [10] = organism: Rattus norvegicus; assay: Reduction in intraocular pressure in Wistar rat model of dexamethasone-induced elevated IOP assessed as change in intraocular pressure in contralateral eye at 1 % w/v after 1.5 hrs by tonometry (reference value: 0%); format: ADME, organism-based; design: scale not given: the % may be the effect or the level left; details: in vivo
Rattus norvegicus [11] = organism: Rattus norvegicus; assay: Reduction in intraocular pressure in Wistar rat model of dexamethasone-induced elevated IOP assessed as change in intraocular pressure in contralateral eye at 1 % w/v after 0.5 hrs by tonometry (reference value: 0%); format: ADME, organism-based; design: scale not given: the % may be the effect or the level left; details: in vivo, topical_or_ocular
Rattus norvegicus [12] = organism: Rattus norvegicus; assay: Reduction in intraocular pressure in Wistar rat model of dexamethasone-induced elevated IOP assessed as change in intraocular pressure at 1 % w/v after 1 hr by tonometry (reference value: 0%); format: functional; design: scale not given: the % may be the effect or the level left
Rattus norvegicus [13] = organism: Rattus norvegicus; assay: Reduction in intraocular pressure in Wistar rat model of dexamethasone-induced elevated IOP assessed as change in intraocular pressure at 1 % w/v after 6 hrs by tonometry (reference value: 0%); format: functional; design: scale not given: the % may be the effect or the level left
[14] = Antioxidant activity assessed as DPPH free radical scavenging activity at 100 ug/ml after 30 mins by spectrophotometric analysis; format: functional
Rattus norvegicus [15] = organism: Rattus norvegicus; assay: Reduction in intraocular pressure in Wistar rat model of dexamethasone-induced elevated IOP assessed as change in intraocular pressure at 1 % w/v after 3 hrs by tonometry (reference value: 0%); format: functional; design: scale not given: the % may be the effect or the level left
Rattus norvegicus [16] = organism: Rattus norvegicus; assay: Reduction in intraocular pressure in Wistar rat model of dexamethasone-induced elevated IOP assessed as change in intraocular pressure in contralateral eye at 1 % w/v after 4 hrs by tonometry (reference value: 0%); format: ADME, organism-based; design: scale not given: the % may be the effect or the level left; details: in vivo
Rattus norvegicus [17] = organism: Rattus norvegicus; assay: Reduction in intraocular pressure in Wistar rat model of dexamethasone-induced elevated IOP assessed as change in intraocular pressure at 1 % w/v after 2.5 hrs by tonometry (reference value: 0%); format: functional; design: scale not given: the % may be the effect or the level left
[18] = Antioxidant activity assessed as DPPH free radical scavenging activity at 50 ug/ml after 30 mins by spectrophotometric analysis; format: functional
Rattus norvegicus [19] = organism: Rattus norvegicus; assay: Reduction in intraocular pressure in Wistar rat model of dexamethasone-induced elevated IOP assessed as peak effect time for reduction in intraocular pressure at 1 % w/v by tonometry; format: functional, organism-based
Rattus norvegicus [20] = organism: Rattus norvegicus; assay: Reduction in intraocular pressure in Wistar rat model of dexamethasone-induced elevated IOP assessed as change in intraocular pressure in contralateral eye at 1 % w/v after 3 hrs by tonometry (reference value: 0%); format: ADME, organism-based; design: scale not given: the % may be the effect or the level left; details: in vivo
Rattus norvegicus [21] = organism: Rattus norvegicus; assay: Reduction in intraocular pressure in Wistar rat model of dexamethasone-induced elevated IOP assessed as change in intraocular pressure in contralateral eye at 1 % w/v after 2 hrs by tonometry (reference value: 0%); format: ADME, organism-based; design: scale not given: the % may be the effect or the level left; details: in vivo
Rattus norvegicus [22] = organism: Rattus norvegicus; assay: Reduction in intraocular pressure in Wistar rat model of dexamethasone-induced elevated IOP assessed as change in intraocular pressure at 1 % w/v after 1.5 hrs by tonometry (reference value: 0%); format: functional; design: scale not given: the % may be the effect or the level left
[23] = Antioxidant activity assessed as DPPH free radical scavenging activity at 5 ug/ml after 30 mins by spectrophotometric analysis; format: functional
Rattus norvegicus [24] = organism: Rattus norvegicus; assay: Reduction in intraocular pressure in Wistar rat model of dexamethasone-induced elevated IOP assessed as onset time for reduction in intraocular pressure at 1 % w/v by tonometry; format: functional
Rattus norvegicus [25] = organism: Rattus norvegicus; assay: Reduction in intraocular pressure in Wistar rat model of dexamethasone-induced elevated IOP assessed as change in intraocular pressure in contralateral eye at 1 % w/v after 1 hr by tonometry (reference value: 0%); format: ADME, organism-based; design: scale not given: the % may be the effect or the level left; details: in vivo, topical_or_ocular
Rattus norvegicus [26] = organism: Rattus norvegicus; assay: Reduction in intraocular pressure in Wistar rat model of dexamethasone-induced elevated IOP assessed as change in intraocular pressure at 1 % w/v after 5 hrs by tonometry (reference value: 0%); format: functional; design: scale not given: the % may be the effect or the level left
Rattus norvegicus [27] = organism: Rattus norvegicus; assay: Reduction in intraocular pressure in Wistar rat model of dexamethasone-induced elevated IOP assessed as change in intraocular pressure at 1 % w/v after 4 hrs by tonometry (reference value: 0%); format: functional; design: scale not given: the % may be the effect or the level left
Rattus norvegicus [28] = organism: Rattus norvegicus; assay: Reduction in intraocular pressure in Wistar rat model of dexamethasone-induced elevated IOP assessed as change in intraocular pressure in contralateral eye at 1 % w/v after 2.5 hrs by tonometry (reference value: 0%); format: ADME, organism-based; design: scale not given: the % may be the effect or the level left; details: in vivo
Rattus norvegicus [29] = organism: Rattus norvegicus; assay: Reduction in intraocular pressure in Wistar rat model of dexamethasone-induced elevated IOP assessed as change in intraocular pressure at 1 % w/v after 0.5 hrs by tonometry (reference value: 0%); format: functional; design: scale not given: the % may be the effect or the level left

Activity (Rattus norvegicus [2]) [%] | logP at 24 h [3] | IC50 [6] [µg/mL] | Activity (Rattus norvegicus [8]) [%] | Activity (Rattus norvegicus [10]) [%] | Activity (Rattus norvegicus [11]) [%] | Activity (Rattus norvegicus [16]) [%] | Activity (Rattus norvegicus [20]) [%] | Structure (SMILES) | Activity [1] [%] | Activity [4] [%] | Activity (Rattus norvegicus [5]) [%] | Activity (Rattus norvegicus [7]) [%] | Activity [9] [%] | Activity (Rattus norvegicus [12]) [%] | Activity (Rattus norvegicus [13]) [%] | Activity [14] [%] | Activity (Rattus norvegicus [15]) [%] | Activity (Rattus norvegicus [17]) [%] | Activity [18] [%] | Tmax (Rattus norvegicus [19]) [h] | further results
0 | 2.02 | 116.48 (≈ 330 µM) | 0 | 2.03 | 0.4 | 0.8 | 2.3 | O=C(CN1CCN(C(=O)c2ccco2)CC1)Nc1nc2ccccc2[nH]1 | 59 | 71 | 11.1 | 48.33 | 23.4 | 4.6 | 1.27 | 49 | 8.63 | 14.92 | 35.9 | 2 | Activity (Rattus norvegicus [21]): 3.1%; Activity (Rattus norvegicus [22]): 8.8%; Activity [23]: 14.5%; Time (Rattus norvegicus [24]): 0.5 h; Activity (Rattus norvegicus [25]): 1.6%; Activity (Rattus norvegicus [26]): 4.47%; Activity (Rattus norvegicus [27]): 6.6%; Activity (Rattus norvegicus [28]): 4.15%; Activity (Rattus norvegicus [29]): 3.9%
– | – | 15.74 (≈ 89.4 µM) | – | – | – | – | – | O=C1O[C@H]([C@@H](O)CO)C(O)=C1O [ASCORBIC ACID] | 92.9 | 97.9 | – | – | 54.9 | – | – | 79.4 | – | – | 62.5 | – | Activity [23]: 39.5%

The remaining lines, values behind:

Structure (SMILES) | Activity (Rattus norvegicus [2]) [%] | logP at 24 h [3] | IC50 [6] [µg/mL] | Activity (Rattus norvegicus [8]) [%] | Activity (Rattus norvegicus [10]) [%] | Activity (Rattus norvegicus [11]) [%] | Activity (Rattus norvegicus [16]) [%] | Activity (Rattus norvegicus [20]) [%] | Activity [1] [%] | Activity [4] [%] | Activity (Rattus norvegicus [5]) [%] | Activity (Rattus norvegicus [7]) [%] | Activity [9] [%] | Activity (Rattus norvegicus [12]) [%] | Activity (Rattus norvegicus [13]) [%] | Activity [14] [%] | Activity (Rattus norvegicus [15]) [%] | Activity (Rattus norvegicus [17]) [%] | Activity [18] [%] | Tmax (Rattus norvegicus [19]) [h] | further results
O=C(CN1CCN(c2ccccc2F)CC1)Nc1nc2ccccc2[nH]1 | 0 | 0.94 | 121.33 (≈ 343 µM) | 0 | 3.2 | 0.9 | 0 | 0.87 | 56.6 | 70.6 | 12.47 | 46.61 | 18.8 | 6.5 | 0.17 | 47.7 | 11.7 | 13.5 | 37.4 | 2.5 | Activity (Rattus norvegicus [21]): 4.07%; Activity (Rattus norvegicus [22]): 9.77%; Activity [23]: 11.6%; Time (Rattus norvegicus [24]): 0.5 h; Activity (Rattus norvegicus [25]): 2.02%; Activity (Rattus norvegicus [26]): 0.95%; Activity (Rattus norvegicus [27]): 7.52%; Activity (Rattus norvegicus [28]): 1.27%; Activity (Rattus norvegicus [29]): 2.82%
O=C(CN1CCN(c2ccccn2)CC1)Nc1nc2ccccc2[nH]1 | 0 | 1.05 | 69.97 (≈ 208 µM) | 0 | 2 | 0.85 | 0 | 0.65 | 69.1 | 76.2 | 15.87 | 51.38 | 40.9 | 7 | 0.65 | 57.3 | 7.82 | 10.62 | 50 | 2 | Activity (Rattus norvegicus [21]): 4%; Activity (Rattus norvegicus [22]): 10%; Activity [23]: 30.8%; Time (Rattus norvegicus [24]): 0.5 h; Activity (Rattus norvegicus [25]): 1.15%; Activity (Rattus norvegicus [26]): 2.87%; Activity (Rattus norvegicus [27]): 5.05%; Activity (Rattus norvegicus [28]): 1.07%; Activity (Rattus norvegicus [29]): 4%
Cl.O=S(=O)(c1cccc2cnccc12)N1CCCNCC1 [FASUDIL HYDROCHLORIDE] | 0 | 1.73 | – | 0 | 3.3 | 0.97 | 0.3 | 1.85 | – | – | 16.67 | 54.84 | – | 5.4 | 0.65 | – | 9 | 9.71 | – | 2 | Activity (Rattus norvegicus [21]): 5.57%; Activity (Rattus norvegicus [22]): 10.17%; Time (Rattus norvegicus [24]): 0.5 h; Activity (Rattus norvegicus [25]): 1.95%; Activity (Rattus norvegicus [26]): 3.42%; Activity (Rattus norvegicus [27]): 7.8%; Activity (Rattus norvegicus [28]): 4.62%; Activity (Rattus norvegicus [29]): 4.62%
